Measurements from patent US10732172B1, “Methods, systems, and compositions for determining blood clot formation, and uses thereof” (President and Fellows of Harvard College, priority 2015, dated 2020).
Entries after “also recorded” stand apart in the source; their conditions may differ.

Columns and labels:
Assay type in all cases: cell-based, human
[1] = test system: platelets; test: Light transmission aggregometry (LTA) with ADP or collagen as agonist; details: blood treated ex vivo with abciximab, all doses; ADP 10 μM or collagen 2 μg/mL
Method: The LTA is performed in accordance with manufacturer instructions. For example, the LTA uses adenosine diphosphate (“ADP”) 10 μM and collagen 2 μg/mL from Chrono-Log.
Blood from healthy donors was treated ex vivo with abciximab or used untreated. These samples as well as clinical blood samples from subjects were centrifuged at 290 g for 10 min (no brake applied) to collect platelet rich plasma (PRP). To obtain a reference solution for each sample, PRP was centrifuged at high speed to pellet platelets (1,000 g, 10 min) and collect platelet poor plasma (PPP). CaCl2 was added to each sample at a final concentration of 1 mM to recalcify plasma before each run. Cifuni et al. “CalDAG-GEFI and protein kinase C represent alternative pathways leading to activation of integrin alphaIIbeta3 in platelets.” Blood 112, 1696-1703 (2008). LTA has then been performed at 37° C. under magnetic stirring using a Chrono-Log Corporation instrument.

[2] = test system: platelets; test: Platelet coverage on TNF-α pretreated, fixed (chemopreserved) endothelium in microfluidic device, whole blood perfusion
Method: (§1) By way of example, a microfluidic device is fabricated using photolithography followed by soft lithography with polydimethysiloxane (“PDMS”). According to this example, six microfluidic devices are placed on a single PDMS mold of the size of a standard glass slide, e.g., 75×25 millimeters (“mm”). The microfluidic devices are first exposed to oxygen plasma for 30 seconds using, for example, a PE-100 benchtop plasma system from Plasma Etch. Then, the microfluidic devices are treated with 1% (3-aminopropyl)-trimethoxysilane (“APTMS”), from Sigma, in 100% anhydrous ethanol for ten minutes. After subsequent rinsing with 70% and 100% ethanol, the microfluidic devices are dried and type I collagen from rat tail, e.g., 100 micrograms/milliliter (“μg/ml) from Corning, is introduced in microchannels of the microfluidic devices.
The microfluidic devices are left overnight at 37° C. in a 5% carbon dioxide (“CO2”) incubator, after which they are rinsed with Endothelial Growth Medium-2 (“EGM-2”) from Lonza. Human Umbilical Vein Endothelial Cells (“HUVEC”) from a mixed donor, by Lonza, are kept in culture and suspended at 12.5 million cells/milliliter (“mL”) in EGM-2, after confluence. The suspension is introduced into the collagen-coated microchannels, after which the microfluidic devices are incubated upside down for 20 minutes. A fresh HUVEC suspension is then introduced in the microchannels, after which the microfluidic devices are incubated for eight hours to promote cell attachment across the channel. The microchannels are, then, rinsed with EGM-2, sometimes containing a freshly prepared solution of tumor necrosis factor (“TNF-α”), which is a recombinant from E. coli from Sigma. […]
(§2) Platelets are visualized using time-lapse fluorescence imaging (e.g., 20×, NA 0.4). A time series of a 10-frame panorama (e.g., 6 mm long×0.665 mm wide region of a microchannel), at a lapse of every 30 seconds is recorded. […]

[3] = test system: platelets; test: Platelet coverage in collagen-coated microfluidic device, whole blood perfusion; details: blood with different doses of abciximab; shear 750 sec^-1
Method: as §1
500 microliters (“μL”) of whole blood are pipetted into a fluid reservoir fitted to one end of a microchannel. Platelets are labeled with human CD41-PE antibody (e.g., 10 μL/mL from Invitrogen) that is directly added to the blood samples and incubated at room temperature for 10 minutes. […]
as §2

Substance: abciximab
- platelet aggregation by light transmission aggregometry [1]: no aggregation is observed; also recorded: virtually complete inhibition of platelet aggregation; also recorded: no platelet aggregability
- abciximab concentration at which optimal effects on platelet adhesion are observed ([2]; fixed endothelium pretreated with TNF-α 5 ng/mL): ≥ 10 µg/mL
- difference in platelet inhibition between 10 μg/ml and 100 μg/ml ([2]; fixed endothelium pretreated with TNF-α 5 ng/ml): insignificant
- platelet coverage (platelet adhesion) on fixed endothelium ([2]; healthy donor whole blood with abciximab 0-100 μg/mL, endothelium pretreated with TNF-α 5 ng/mL then fixed, shear 750 s^-1): decreases with increase in abciximab drug concentration; also recorded: dose-dependent inhibition of platelet adhesion; also recorded: significant dose-dependent platelet inhibition
- platelet coverage on collagen-coated microfluidic device [3]: insignificant decrease in platelet adhesion and aggregation; also recorded: small suppressive effect on platelet adhesion; also recorded: poor sensitivity
